Counter-ions that a name gives are not always drawn.
Experiments:
carboxypeptidase Y and B = test: Metabolic stability in carboxypeptidase mix (ESMS, SIM of the molecular ion); assay type: in vitro ADME; conditions: stability after 24 h at 37° C. in carboxypeptidase Y and B, 50 mM ammoniumacetate pH 4.5; enzyme:substrate approx. 1:5 (w/w)
Procedure: (§1) Compounds of formula I may be evaluated for their metabolic stability.
(§2) Compounds were dissolved at a concentration of 1 μg/μl in water. 25 μl of this solution is added to 175 μl of the respective enzyme-solution (resulting in an enzyme:substrate ratio (w/w) of approximately 1:5). The solution is left at 37° C. overnight. 10 μl of the various degradation solutions is analyzed against a corresponding zero-sample using flow injection electrospray mass spectrometry (ESMS) with selected ion monitoring of the molecular ion. If the signal has decreased more than 20% compared to the zero-sample, the remainder of the solution is analyzed by HPLC and mass spectrometry in order to identify the extent and site(s) of degradation precisely.
(§3) Several standard peptides (ACTH 4-10, Angiotensin 1-14 and Glucagon) have been included in the stability tests in order to verify the ability of the various solutions to degrade peptides.
(§4) Enzymes (trypsin, chymotrypsin, elastase aminopeptidase M and carboxypeptidase Y and B) were all purchased from Boehringer Mannheim GmbH (Mannheim, Germany)
Carboxypeptidase mix: carboxypeptidase Y and B in 50 mM ammoniumacetate pH 4.5 (all concentrations 0.025 μg/μl).
(§5) Quantification of the compounds (before and after degradation) was done on the API III instrument using single ion monitoring of the molecular ion in question with flow injection of the analyte. […]

[1] = test system: trypsin, chymotrypsin and elastase; test: Metabolic stability in pancreatic enzyme mix (ESMS, SIM of the molecular ion); assay type: in vitro ADME; conditions: stability after 24 h at 37° C. in trypsin, 100 mM ammoniumbicarbonate pH 8.0, enzyme:substrate approx. 1:5 (w/w)
Procedure: as §1, §2, §3, §4
Pancreatic enzyme mix: trypsin, chymotrypsin and elastase in 100 mM ammoniumbicarbonate pH 8.0 (all concentrations 0.025 μg/μl).
as §5

Row | Compound | melting point | Carboxy-peptidase mix (carboxypeptidase Y and B) | Pan. enzyme mix [1]
1 | Glucagon |  | − (Unstable (more than 20% decrease in SIM signal after 24 h in degradation solution)) | − (Unstable (more than 20% decrease in SIM signal after 24 h in degradation solution))
2 | Cc1noc([C@@H](Cc2ccccc2)NC(=O)[C@@H](Cc2ccc3ccccc3c2)NC(=O)c2cccc(CN)c2)n1 (as salt: salt) | 240 to 241 °C |  | 

Now from value to compound, other results behind:

Row | melting point | Compound | Carboxy-peptidase mix (carboxypeptidase Y and B) | Pan. enzyme mix [1]
3 | 198 to 200 °C | Cc1noc([C@@H](Cc2ccccc2)NC(=O)[C@@H](Cc2ccc3ccccc3c2)NC(=O)[C@@H]2CCCNC2)n1 (stereo in doubt) (as salt: salt) |  | 
4 | 161 to 167 °C | Cc1noc([C@@H](Cc2ccccc2)NC(=O)C(Cc2ccc3ccccc3c2)NC(=O)/C=C/C(C)(C)N)n1 (stereo in doubt) (as salt: salt) |  | 
5 | 238 to 241 °C | Cc1noc([C@@H](Cc2ccccc2)NC(=O)[C@@H](Cc2ccc3ccccc3c2)NC(=O)C2CCNCC2)n1 (stereo in doubt) (as salt: salt) |  | 
